# Assay results reported in US8173673B2, “Biofilm-inhibiting effect and anti-infective activity of N,C-linked aryl isoquinolines and the use thereof” (Julius-Maximilians-Universitaet Wuerzburg, priority 2006, dated 2012).
# Structures can show the parent of a compound that is named as a salt.
# How the values were obtained:
# [1] = tested on: 293 kidney epithelial cells; assay: Cytotoxicity by the Alamar-Blue assay; type: cell-based
# Procedure: Determination of the Cytotoxicity by the Alamar-Blue®-Assay with the Example of Substance A
# The cytotoxicity of A was determined by means of an Alamar-Blue®-assay. First, a geometric series of dilutions of A in cellular medium (293 kidney epithelial cells; without phenol red) with 1% DMSO was produced, and in a 96-well-polystyrol-flat bottom-microtiter plate vorgelegt. The cells were trypsinized, and washed once. For the test, a cellular suspension of 10^5 cells/ml was prepared, and 20 μl thereof were pipetted into the wells. The final volume was 200 μl. After 24 h incubation at 37° C. and 5% CO2, 20 μl Alamar Blue (Trinova Biochem, Gieβen, Germany) was added into each well, and the microtiter plate was incubated further. The wells that contained the medium and substance, as well as those that only contained cellular suspension (without substance), served as negative or positive control, respectively. The optical density was measured after 24 h and 48 h with an ELISA-reader at the wavelengths 550 nm and 630 nm. The IC50 value for A was calculated following linear interpolation (W. Huber, J. C. Koella Acta Tropica 1993, 55, 257-261).
# [2] = tested on: S. epidermidis RP62A; assay: Biofilm test on polystyrene surfaces (crystal violet); type: cell-based, Staphylococcus epidermidis; conditions: drug concentration of 0.63 μM
# Procedure: Determination of the Formation of Biofilms of Staphylococci on Polystyrene-Surfaces (Biofilm Test)
# For determining the effect of a test compound on the formation of biofilms of staphylococci, the biofilm-reference strain S. epidermidis RP62A is inoculated in trypticase-soy-broth (TSB) with a common 0.25% (w/v) glucose concentration (standard-TSB), and grown over night at 37° C. in a shaking incubator until the stationary growth phase. On the next day, the cultures are diluted 1:100 with fresh TSB, and 100 μl of this germ suspension are pipetted into the wells of a 96-well-polystyrol-tissue culture plate with flat bottom (Greiner, Nürtingen, Germany). In the meantime, also a geometric series of dilutions of the test substance is produced in TSB, and also 100 μl of each of these dilutions are added to the den germ suspensions. The plates were incubated at 37° C. in an incubator for 18 hours at 37° C. On the next day, first the growth of the cultures is checked through determining of the optical density at 550 nm by means of an ELISA-reader (see also at MIC-determination), and documented. Then, the cultures are carefully poured out of the wells, and the plates were washed three times with phosphate-buffered saline solution (PBS), in order to remove non-adherent bacteria. […] After drying, the density of the adherent biofilm is determined with an ELISA-reader at a wavelength of 490 nm.
# [3] = tested on: Staphylococcus epidermidis RP62A; assay: MIC, micro-bouillon-dilution method; type: cell-based; conditions: 18 hours at 37° C.
# Excerpt: (§1) Examination of the Inhibitory Effect Through Determining of the Minimal Inhibitory Concentration (MIC) in the Micro-Bouillon-Dilution Methods
# (§2) In this method, a series of dilutions with decreasing concentrations of drug is produced in 96-well-microtiter plates from a stock solution of the compound. The drug-containing microtiter plate-wells are inoculated with a defined amount of the pathogen to be tested, and cultivated. The concentration of the compound in the well, where no more turbidity of the medium due to a growth of the pathogens could be optically detected is given as the MIC.
# (§3) The test strains were inoculated in Luria-Bertani-medium, and grown over night in a shaking incubator at 37° C. until stationary growth phase. On the following day, the culture was diluted 1:100 with fresh Müller-Hinton-bouillon (MH-Medium) containing 5% NaCl (w/v), and until logarithmic growth phase incubated again at 37° C. inkubiert. The optical density of the bacterial suspension was photometrically measured at 550 nm, and the suspension adjusted at 2×10^5 colony forming units/ml (CFU/ml). In the meantime, a geometric series of dilutions of the test compounds was produced in MH-medium. 100 μl of each dilution were pipetted into the corresponding wells of a 96-well-polystyrene-flat bottom-microtiter plate. The plates were inoculated with 100 μl of the pre-prepared inoculum, and cultured in the incubator for 18 hours at 37° C. On the following day, the optical density of the bacterial cultures in the wells was determined with an ELISA-reader at a wavelength of 550 nm, compared to the blank value (=non-inoculated MH-medium). The concentrations of the compound in the last wells, wherein no more growth of the pathogens could be detected, is given as the MIC. A low MIC indicates a high inhibitory activity of a compound, whereas a high concentration indicates a low activity.
# (§4) The MIC of, for example, A was tested for the following germs and strains: • Staphylococcus aureus 325: Biofilm-positive clinical isolate from blood culture, wild type • Staphylococcus aureus NCTC 8325: Biofilm-negative reference strain, genome published • Staphylococcus epidermidis RP62A: Biofilm-positive, multi resistant reference strain • Escherichia coli 536: urinary tract isolate, reference strain • Pseudomonas aeruginosa: environmental isolate • Candida albicans 5314: clinical isolate
# [4] = tested on: Staphylococcus aureus 325; assay: MIC, micro-bouillon-dilution method; type: cell-based; conditions: Staphylococcus aureus 325, 18 hours at 37° C.
# Excerpt: as §1, §2, §3, §4
# [5] = tested on: Staphylococcus aureus NCTC 8325; assay: MIC, micro-bouillon-dilution method; type: cell-based; conditions: Staphylococcus aureus NCTC 8325, 18 hours at 37° C.
# Excerpt: as §1, §2, §3, §4
# [6] = tested on: Candida albicans 5314; assay: MIC, micro-bouillon-dilution method; type: cell-based; conditions: Candida albicans 5314, 18 hours at 37° C.
# Excerpt: as §1, §2, §3, §4
# [7] = tested on: Escherichia coli 536; assay: MIC, micro-bouillon-dilution method; type: cell-based; conditions: Escherichia coli 536, 18 hours at 37° C.
# Excerpt: as §1, §2, §3, §4
# [8] = tested on: Pseudomonas aeruginosa; assay: MIC, micro-bouillon-dilution method; type: cell-based
# Excerpt: as §1, §2, §3, §4
compound,measurement,setting,value
"COc1cc(OC)c2c(C)[n+](-c3ccc(-c4ccc(-[n+]5c(C)cc6cc(OC)cc(OC)c6c5C)cc4)cc3)c(C)cc2c1 [A, N,N′-(1,1′-benzidine)-di-(6,8-dimethoxy-1,3-dimethylisoquinolinium)-salt]",IC50,[1],42.4 µM
same,reduction of the formation of biofilms compared to a control without the substance,[2],about 90%
same,Minimal inhibitory concentrations,[3],0.63 µM
same,Minimal inhibitory concentrations,[4],0.63 µM
same,Minimal inhibitory concentrations,[5],5.00 µM
same,Minimal inhibitory concentrations,[6],1.25 µM
same,Minimal inhibitory concentrations,[7],20.00 µM
same,Minimal inhibitory concentrations,"[8]; Pseudomonas aeruginosa, 18 hours at 37° C.",>160 µM
same,growth-inhibiting effect,"[8]; pseudomonades, result in words",fully ineffective
